The text below walks through data of ChEMBL document CHEMBL1201862, “PubChem BioAssay data set” (2004).

Among the test systems are COLO 205; EKVX; M14; Malme-3M; NCI-H460; NCI-H522; OVCAR-5; OVCAR-8; RPMI-8226; RXF 393; SF-295; SF-539; SK-MEL-5; SN12C; SNB-19; SNB-75; SR; SW-620; U-251; UACC-257.
What all share (assay): NCI-60 cell line screen, 48 h

Counter-ions that a name gives are not always drawn.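 Five concentrations, 48 hours, 96-well plates. The concentration for 50% growth inhibition is given as GI50.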 Activity calls are given as the source filed them. Cut-off read from the data, not from the text of the source: active = GI50 up to about 1.1 µM and inactive = higher.

Regarding `CCc1ccc2c(c1)N(CC(C)CN(C)C)c1ccccc1S2` (stereo not given) [ETYMEMAZINE HYDROCHLORIDE], the GI50 was 3.29 µM (inactive) with COLO 205; 11.4 µM (inactive) in the experiment on EKVX; 2.12 µM (inactive) with M14; 4.11 µM (inactive) in the experiment on Malme-3M; 3.33 µM (inactive) in the experiment with NCI-H460; 2.87 µM (inactive) with NCI-H522. Also, the GI50 with OVCAR-5 was 4.98 µM (inactive); with OVCAR-8 it was 7.94 µM (inactive); with RPMI-8226, 2.17 µM (inactive); in the experiment with RXF 393 it was 2.79 µM (inactive); in the experiment on SF-295 it was 9.64 µM (inactive); in the experiment with SF-539, 10.2 µM (inactive). Further, the GI50 in the experiment on SK-MEL-5 was 3.78 µM (inactive); in the experiment on SN12C, 7.21 µM (inactive); with SNB-19 it was 10.6 µM (inactive); in the experiment with SNB-75 it was 3 µM (inactive); in the experiment with SR, 0.298 µM (active); with SW-620 it was 5.53 µM (inactive). Moreover, the GI50 in the experiment on U-251 is 5.12 µM (inactive); with UACC-257 it was 2.74 µM (inactive).
